The values that follow are results of earlier work, collected in PMC7605553 (bioRxiv, 2020).

The data set deals with SARS-CoV-2. To be noted: read-out: EC50 for inhibition of SARS-CoV-2 infection; Calu-3 cells.

Where a name gives a salt, the structure may show the parent alone.

In the case of `CN(C)C(=O)COC(=O)Cc1ccc(OC(=O)c2ccc(NC(=N)N)cc2)cc1` [camostat mesylate], the 50% effective concentration (EC50) was 1000 nM.
